The values that follow come from ChEMBL document CHEMBL3046429, “Synthesis, molecular modeling study, preliminary antibacterial, and antitumor evaluation of N-substituted naphthalimides and their structural analogues” (2013).

Converted amounts (≈) assume the structure as drawn.

Common to all, as to type: functional
The test system of test [1] is UACC-62. Nature of the test: Growth inhibition of Homo sapiens (human) UACC62 cells at 10 uM after 48 hr by coulter counter analysis. As to conditions: UACC-62, 48 h, read-out: GI.
Test [2] relates to Malme-3M. As to the kind of experiment: Growth inhibition of Homo sapiens (human) MALME-3M cells at 10 uM after 48 hr by coulter counter analysis. To be noted: read-out: GI.
In test [3] the test system is TK-10. Nature of the test: Growth inhibition of Homo sapiens (human) TK10 cells at 10 uM after 48 hr by coulter counter analysis. To be noted: TK-10, 48 h, read-out: GI.
The test system of test [4] is LOX IMVI. Nature of the test: Growth inhibition of Homo sapiens (human) LOXIMVI cells at 10 uM after 48 hr by coulter counter analysis. To be noted: read-out: GI.
The test system of test [5] is CAKI-1. As to the kind of experiment: Growth inhibition of Homo sapiens (human) CAKI-1 cells at 10 uM after 48 hr by coulter counter analysis. As to conditions: CAKI-1, 48 h, read-out: GI.
The subject of test [6] is 786-0. Nature of the test: Growth inhibition of Homo sapiens (human) 786-0 cells at 10 uM after 48 hr by coulter counter analysis. As to conditions: 786-0, 48 h, read-out: GI.
The test system of test [7] is A498. As to the kind of experiment: Growth inhibition of Homo sapiens (human) A498 cells at 10 uM after 48 hr by coulter counter analysis. As to conditions: A498, 48 h, read-out: GI.
For test [8], the system named is MOLT-4. As to the kind of experiment: Growth inhibition of Homo sapiens (human) MOLT4 cells at 10 uM after 48 hr by coulter counter analysis. As to conditions: MOLT-4, 48 h, read-out: GI.
For test [9], the system named is SNB-19. As to the kind of experiment: Growth inhibition of Homo sapiens (human) SNB19 cells at 10 uM after 48 hr by coulter counter analysis. As to conditions: SNB-19, 48 h, read-out: GI.
The test system of test [10] is SF-539. As to the kind of experiment: Growth inhibition of Homo sapiens (human) SF539 cells at 10 uM after 48 hr by coulter counter analysis. To be noted: SF-539, 48 h, read-out: GI.
For test [11], the system named is HCC 2998. Nature of the test: Growth inhibition of Homo sapiens (human) HCC2998 cells at 10 uM after 48 hr by coulter counter analysis. To be noted: HCC 2998, 48 h, read-out: GI.
The test system of test [12] is EKVX. As to the kind of experiment: Growth inhibition of Homo sapiens (human) EKVX cells at 10 uM after 48 hr by coulter counter analysis. As to conditions: read-out: GI.
The test system of test [13] is HL-60(TB). Nature of the test: Growth inhibition of Homo sapiens (human) HL-60(TB) cells at 10 uM after 48 hr by coulter counter analysis. As to conditions: HL-60, 48 h, read-out: GI.
Test [14] deals with SK-OV-3. As to the kind of experiment: Growth inhibition of Homo sapiens (human) SKOV3 cells at 10 uM after 48 hr by coulter counter analysis. To be noted: SK-OV-3, 48 h, read-out: GI.
Test [15] relates to IGROV-1. As to the kind of experiment: Growth inhibition of Homo sapiens (human) IGROV1 cells at 10 uM after 48 hr by coulter counter analysis. To be noted: IGROV-1, 48 h, read-out: GI.
Test [16] has as its system SW-620. As to the kind of experiment: Growth inhibition of Homo sapiens (human) SW620 cells at 10 uM after 48 hr by coulter counter analysis. To be noted: SW-620, 48 h, read-out: GI.
The subject of test [17] is HT-29. As to the kind of experiment: Growth inhibition of Homo sapiens (human) HT-29 cells at 10 uM after 48 hr by coulter counter analysis. To be noted: HT-29, 48 h, read-out: GI.
Test [18] relates to HCT-116. As to the kind of experiment: Growth inhibition of Homo sapiens (human) HCT116 cells at 10 uM after 48 hr by coulter counter analysis. As to conditions: HCT-116, 48 h, read-out: GI.
The subject of test [19] is A549. Nature of the test: Growth inhibition of Homo sapiens (human) A549/ATCC cells at 10 uM after 48 hr by coulter counter analysis. As to conditions: A549, 48 h, read-out: GI.
The test system of test [20] is Pseudomonas aeruginosa. Nature of the test: Antibacterial activity against Pseudomonas aeruginosa assessed as growth inhibition after 24 hr by two-fold serial dilution method.
The subject of test [21] is Escherichia coli. As to the kind of experiment: Antibacterial activity against Escherichia coli assessed as growth inhibition after 24 hr by two-fold serial dilution method.
The subject of test [22] is Bacillus subtilis. Nature of the test: Antibacterial activity against Bacillus subtilis assessed as growth inhibition after 24 hr by two fold serial dilution method.

The MIC is the smallest concentration in the dilution series that meets the test's criterion for growth inhibition. Take `O=C1c2nccnc2C(=O)N1c1c(Cl)cc(Cl)cc1Cl`: the inhibition of growth at 10 µM in test [1] is 1.42%; in test [2], 21.1%; in test [3], -4.45%; in [4], -0.26%; in test [5], 18%; in test [6], 2.39%. Besides, the inhibition of growth at 10 µM in test [7] is 20.9%; in [8] it was 1.21%; in [9], -2.3%; in test [10] it was 8.66%; in test [11], -4.24%; in test [12], 8.2%. Further, the inhibition of growth at 10 µM in test [13] was 1.42%; in [14], 4.55%; in [15] it was 7.24%; in test [16] it was -7.54%; in test [17], 4.24%; in test [18], 1.17%. Also, the inhibition of growth at 10 µM in test [19] is -11.7%. In addition, the MIC was determined as 20 µg/mL (≈ 60.9 µM) in [20]; 6.9 µg/mL (≈ 21 µM) in [21] (Escherichia coli, 24 h); 20 µg/mL (≈ 60.9 µM) in [22]. For the same molecule, the “-logMIC” value in [21] came to 4.68.
